Values joined by “and” are separate entries in the source; they are usually repeats but may differ in a detail not shown here. Equal entries are not always repeated. Where two headings read alike, the source gives them in different places.
What was measured:
[1] = Multispecies hepatocyte MetID; type: in vitro ADME, cynomolgus monkey; settings: 4 h incubation with hepatocytes, 10 μM
Method: Metabolites were identified after preincubating each compound at a 10 μM final concentration with 2.5 × 10^5 hepatocytes from human, dog, cynomolgus monkey, and rat in 200 μL of Optiincubate buffer (BioIVT, Westbury, NY). […] After centrifugation, 60 μL of the supernatant was transferred to 60 μL of water for LC-MS analysis. Samples were analyzed using a Thermo Scientific Vanquish UHPLC consisting of a VH-P10-A pump, a VH-A10-A sampler module, a VH-C10-A column compartment, and the VF-D11-A UV detector coupled to an Orbitrap Fusion Lumos instrument with UVPD. A binary solvent system consisting of (A) water with 0.1% formic acid and (B) acetonitrile with 0.1% formic acid was used with an Accucore Vanquish C18+, 2.1 mm × 100 mm, 1.5 μm, UHPLC column maintained at 40 °C. The data generated by data-dependent acquisition via normal acquisition and AcquireX were processed manually with Thermo Scientific FreeStyle and assisted by Compound Discoverer 3.3.1.111 to aid in the structural assignments.

Melatonin MT1 = Melatonin MT1 (Homo sapiens, UniProt P48039); experiment: LeadProfilingScreen radioligand binding
Adrenergic β2 = Adrenergic β2 (Homo sapiens, UniProt P07550); experiment: LeadProfilingScreen radioligand binding
Histamine H2 = Histamine H2 (Homo sapiens, UniProt P25021); experiment: LeadProfilingScreen radioligand binding
hSLO2.2 = biological target: T1, hSLO2.2 (Homo sapiens, UniProt Q5JUK3); experiment: SLO2.2 inhibition in HEK cells; type: cell-based
T1 construct: expressed in transfected cells; host or cells: HEK

[2] = Discrete IV PK in female mice; type: in vivo, mouse; settings: 5 mg/kg IV
Method: In-life phase–Compounds were formulated in 12% ethanol, 48% PEG400, and 40% DMSO (v/v/v) at a concentration of 1 mg/mL and administered as a single 0.2 mg/kg IV dose (1 mL/kg) to male, Sprague–Dawley rats (n = 1; 342 g body weight) via injection into a surgically implanted jugular vein catheter. Blood samples were collected serially from a surgically implanted carotid artery catheter in each animal over multiple postadministration time points (0.033, 0.117, 0.25, 0.5, 1, 2, 4, 7, and 24 h) into chilled, K2EDTA anticoagulant-fortified tubes and immediately placed on wet ice. The blood samples were then centrifuged (1700 rcf, 5 min, 4 °C) in order to obtain plasma samples, which were stored at −80 °C until analysis by LC-MS/MS. VU6032735 was also dosed IV in C57Bl6 mice at 5 mg/kg IV to determine mouse PK. Formulation and experimental design were identical to those used for rats except that whole blood was used for analysis.
(§1) Samples were analyzed via electrospray ionization (ESI) LC-MS/MS on an AB Sciex 4500 (Foster City, CA) triple-quadrupole instrument that was coupled with an Agilent 1290 Infinity Binary Pump and multisampler (Santa Clara, CA) and concentrations (ng/mL or ng/g) were determined using a matrix-matched 10-point standard curve and then converted to nM concentrations. Quantitation of compounds was performed via AB Sciex Multiquant software using the raw analyte:IS peak area ratios. The typical detection range was 0.5 ng/mL to ≥5000 ng/mL utilizing a quadratic equation regression with 1/x² weighting. Correction for dilution of all tissue samples was performed postquantitation. The corrections for dilution in the extraction buffer employed correction factors specific to each tissue weight.

[3] = Drug concentrations in compartments of the murine FRT after IP dosing; type: in vivo, mouse; settings: 10 mg/kg IP; for concentration at 0.25 hr / concentration at 0.5 hr / concentration at 1 hr / concentration at 3 hr / concentration at 6 hr / concentration at 24 hr: mouse
Method: as §1
In subsequent experiments, mice were dosed by injection into the peritoneum (ip) as a single 10 mg/kg dose, the reproductive organs were dissected, and the ovaries, the oviducts, and the uterus were pooled from 2 animals and frozen. Tissues were subjected to mechanical homogenization (Mini-BeadBeater, BioSpec Products, Inc., Bartlesville, OK) in the presence of stainless-steel beads (1.0 mm) and extraction buffer (isopropanol:water, 7:3, v/v; 1 mL per sample for whole reproductive organs and uterus and 250 μL for ovaries and oviducts). Homogenized tissue samples were then centrifuged (4000 rcf, 5 min, ambient temperature), and 5 μL of the supernatant was used for quantification of the analyte. The plasma standard curve and QCs were used for compound quantitation in reproductive tissues.

[4] = ovary, female mice, read-out: Ovary concentration
[5] = oviduct, female mice, read-out: Oviduct concentration
[6] = plasma, female mice, read-out: Plasma concentration
[7] = uterus, female mice, read-out: Uterus concentration

Chain of Adrenergic β2 (P07550 whole entry): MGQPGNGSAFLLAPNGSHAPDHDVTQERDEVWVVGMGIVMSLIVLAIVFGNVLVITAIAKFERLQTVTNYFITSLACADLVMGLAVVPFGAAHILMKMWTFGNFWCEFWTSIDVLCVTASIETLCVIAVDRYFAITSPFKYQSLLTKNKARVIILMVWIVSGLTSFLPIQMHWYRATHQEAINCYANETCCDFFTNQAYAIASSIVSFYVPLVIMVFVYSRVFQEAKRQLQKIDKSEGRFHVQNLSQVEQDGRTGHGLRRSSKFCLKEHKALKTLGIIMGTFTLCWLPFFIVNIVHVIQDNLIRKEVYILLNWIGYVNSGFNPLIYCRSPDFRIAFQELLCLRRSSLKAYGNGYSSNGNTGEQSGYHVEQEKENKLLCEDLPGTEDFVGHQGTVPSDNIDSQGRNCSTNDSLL
Chain of Melatonin MT1 (P48039 whole entry): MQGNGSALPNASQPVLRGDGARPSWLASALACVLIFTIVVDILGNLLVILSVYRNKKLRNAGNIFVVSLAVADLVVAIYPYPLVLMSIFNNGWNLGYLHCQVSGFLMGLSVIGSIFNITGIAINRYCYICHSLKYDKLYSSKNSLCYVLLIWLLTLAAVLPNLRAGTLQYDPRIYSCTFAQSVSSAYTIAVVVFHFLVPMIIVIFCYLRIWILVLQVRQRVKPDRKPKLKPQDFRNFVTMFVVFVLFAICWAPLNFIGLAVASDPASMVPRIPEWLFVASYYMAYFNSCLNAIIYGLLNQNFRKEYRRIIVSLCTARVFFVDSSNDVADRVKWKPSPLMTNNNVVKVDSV
Chain of Histamine H2 (P25021 whole entry): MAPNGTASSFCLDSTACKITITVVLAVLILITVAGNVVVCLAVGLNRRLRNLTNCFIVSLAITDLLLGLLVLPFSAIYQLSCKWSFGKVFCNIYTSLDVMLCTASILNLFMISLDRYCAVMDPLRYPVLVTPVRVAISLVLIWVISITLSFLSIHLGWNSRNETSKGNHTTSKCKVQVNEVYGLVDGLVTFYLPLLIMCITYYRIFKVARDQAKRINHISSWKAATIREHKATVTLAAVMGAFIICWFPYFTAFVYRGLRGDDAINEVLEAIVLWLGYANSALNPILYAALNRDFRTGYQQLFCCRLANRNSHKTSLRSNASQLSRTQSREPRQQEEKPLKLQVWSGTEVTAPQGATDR
T1 sequence (Q5JUK3 whole entry): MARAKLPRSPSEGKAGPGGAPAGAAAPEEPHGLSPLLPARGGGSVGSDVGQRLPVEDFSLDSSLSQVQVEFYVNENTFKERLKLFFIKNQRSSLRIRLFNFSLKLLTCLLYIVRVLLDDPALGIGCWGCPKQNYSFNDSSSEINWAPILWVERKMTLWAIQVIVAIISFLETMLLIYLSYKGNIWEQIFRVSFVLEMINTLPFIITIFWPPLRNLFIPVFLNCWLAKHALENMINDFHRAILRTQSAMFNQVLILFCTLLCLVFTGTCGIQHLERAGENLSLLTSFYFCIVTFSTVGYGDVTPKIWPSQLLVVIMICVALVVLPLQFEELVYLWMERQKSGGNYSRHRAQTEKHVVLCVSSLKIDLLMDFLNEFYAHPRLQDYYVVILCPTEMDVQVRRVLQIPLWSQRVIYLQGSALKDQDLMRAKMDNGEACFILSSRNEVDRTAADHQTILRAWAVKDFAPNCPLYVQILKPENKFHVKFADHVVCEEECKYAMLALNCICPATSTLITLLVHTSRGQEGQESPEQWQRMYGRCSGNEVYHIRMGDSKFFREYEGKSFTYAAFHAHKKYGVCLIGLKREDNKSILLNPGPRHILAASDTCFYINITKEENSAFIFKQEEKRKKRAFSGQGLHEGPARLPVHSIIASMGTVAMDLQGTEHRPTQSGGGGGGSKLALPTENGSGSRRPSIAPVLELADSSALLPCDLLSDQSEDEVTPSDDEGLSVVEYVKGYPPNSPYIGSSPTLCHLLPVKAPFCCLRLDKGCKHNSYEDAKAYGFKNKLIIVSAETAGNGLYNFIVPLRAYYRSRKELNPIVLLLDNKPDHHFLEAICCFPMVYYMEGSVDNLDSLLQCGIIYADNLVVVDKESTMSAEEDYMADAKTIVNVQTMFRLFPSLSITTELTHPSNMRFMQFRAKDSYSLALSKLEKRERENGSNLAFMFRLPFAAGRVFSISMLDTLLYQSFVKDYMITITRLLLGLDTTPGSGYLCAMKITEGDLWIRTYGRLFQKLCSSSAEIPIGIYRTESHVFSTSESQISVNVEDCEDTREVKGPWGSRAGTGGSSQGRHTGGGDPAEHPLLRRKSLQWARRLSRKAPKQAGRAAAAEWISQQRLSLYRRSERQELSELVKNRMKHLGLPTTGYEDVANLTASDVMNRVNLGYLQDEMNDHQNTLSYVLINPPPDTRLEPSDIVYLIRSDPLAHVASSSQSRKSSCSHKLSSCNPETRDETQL

Which results are given for Cc1cc(Cl)cc2sc(O[C@H]3CCN(C(=O)CCCS(=O)(=O)c4cccc(Br)c4)C[C@H]3F)nc12 [VU6047606]?
% of Parent Related Material, Cyno [1]: 82.77% and > 82%; inhibition at 10 µM (Melatonin MT1): 19%; inhibition at 10 µM (Adrenergic β2): 5%; inhibition at 10 µM (Histamine H2): -24%

Which “HEK hSLO2.2 % inhib. 10 μM” value (hSLO2.2) does the source give for Cc1cc(Cl)cc2sc(OC3CCN(C(=O)CCCS(=O)(=O)c4cccc(Br)c4)CC3F)nc12 (stereo not drawn) [VU6045330] here?
The value was “No inhibition”.

Which CLobs [2] does the source give for O=C(c1ccc(OCc2ccc(OC(F)(F)F)cc2)cc1)N1CCN(c2ccc(C(F)(F)F)cn2)CC1 [VU6032735] here?
The CLobs was 0.516 L/h/kg.

And the AUC ([2]; C57Bl6, mouse, whole blood)?
The AUC was 9.84 µg·h/mL.

And the MRT ([2]; C57Bl6, mouse, whole blood)?
The MRT was 45.9 h.

And the half-life ([2]; C57Bl6, mouse, whole blood, read-out: Elim. t1/2 (converted))?
The half-life was 33.7 h.

And the Vd ([2]; C57Bl6, mouse, whole blood, read-out: Vss)?
Its Vd is 23.6 L/kg.

And the “% of Parent Related Material, Cyno” value [1]?
Its value is greater than 98%.

What about the “oviduct total drug concentration relative to mSLO3 IC50” value ([3]; 24 h, versus IC50 in mouse sperm and in mSLO3-γ2 HEK293 cells) of the same compound?
The value was 4.4- to 5.5 fold.

What about the “oviduct concentration relative to ovary” value ([3]; female mice) of the same compound?
The value was 10 fold.

What about the “oviduct concentration relative to uterus” value ([3]; female mice) of the same compound?
The value was 5 fold.

What about the “total concentrations in the different compartments of the reproductive tract” value ([3]; female mice, for 24 h after dosing) of the same compound?
The value was “above 1 μM”.

What about the concentration at 0.25 hr [3, 4] of the same compound?
The concentration at 0.25 hr was 7.52 µM.

What about the concentration at 0.5 hr [3, 4] of the same compound?
The concentration at 0.5 hr was 7.69 µM.

What about the concentration at 1 hr [3, 4] of the same compound?
The concentration at 1 hr was 7.45 µM.

And the concentration at 3 hr [3, 4]?
Its concentration at 3 hr is 2.63 µM.

And the concentration at 6 hr [3, 4]?
The concentration at 6 hr was 3.54 µM.

What about the concentration at 24 hr [3, 4] of the same compound?
Its concentration at 24 hr is 1.97 µM.

And the concentration at 0.25 hr [3, 5]?
The concentration at 0.25 hr was 73 µM.

And the concentration at 0.5 hr [3, 5]?
Its concentration at 0.5 hr is 94.8 µM.

What about the concentration at 1 hr [3, 5] of the same compound?
Its concentration at 1 hr is 95.2 µM.

And the concentration at 3 hr [3, 5]?
The concentration at 3 hr was 93.6 µM.

And the concentration at 6 hr [3, 5]?
Its concentration at 6 hr is 35.3 µM.

What about the concentration at 24 hr [3, 5] of the same compound?
Its concentration at 24 hr is 4.02 µM.

And the concentration at 0.25 hr [3, 6]?
Its concentration at 0.25 hr is 1.15 µM.

What about the concentration at 0.5 hr [3, 6] of the same compound?
The concentration at 0.5 hr was 0.45 µM.

What about the concentration at 1 hr [3, 6] of the same compound?
The concentration at 1 hr was 0.62 µM.

What about the concentration at 3 hr [3, 6] of the same compound?
The concentration at 3 hr was 0.98 µM.

What about the concentration at 6 hr [3, 6] of the same compound?
The concentration at 6 hr was 2.14 µM.

What about the concentration at 24 hr [3, 6] of the same compound?
Its concentration at 24 hr is 0.61 µM.

What about the concentration at 0.25 hr [3, 7] of the same compound?
The concentration at 0.25 hr was 12.4 µM.

What about the concentration at 0.5 hr [3, 7] of the same compound?
Its concentration at 0.5 hr is 11.3 µM.

What about the concentration at 1 hr [3, 7] of the same compound?
The concentration at 1 hr was 21.8 µM.

What about the concentration at 3 hr [3, 7] of the same compound?
The concentration at 3 hr was 4.35 µM.

What about the concentration at 6 hr [3, 7] of the same compound?
The concentration at 6 hr was 6.66 µM.

And the concentration at 24 hr [3, 7]?
Its concentration at 24 hr is 3.11 µM.

What about the inhibition at 10 µM (Melatonin MT1) of the same compound?
Its inhibition at 10 µM is 8%.

What about the inhibition at 10 µM (Adrenergic β2) of the same compound?
The inhibition at 10 µM was 5%.

And the inhibition at 10 µM (Histamine H2)?
Its inhibition at 10 µM is 6%.
